Data as given in patent publication US8753604B2, “Methods and compositions for synaphically-targeted treatment for cancer” (Sanford-Burnham Medical Research Institute, priority 2008, dated 2014).
Each block holds one compound with its values, some of them ahead of it. Bridges are numbered along the chain shown (N, C = ends). Where no end group is shown, it is not given here. The star is where a group is joined. FITC = O=C1OC2(c3ccc(O)cc3Oc3cc(O)ccc32)c2ccc(NC(=S)*)cc21

Assays:
tumors [1] = details: mouse, in vivo
Protocol: (§1) The peptides were allowed to circulate for 2 hrs and organs were collected and viewed under UV light (left panel) or white light (right panel). […] Fluorescence in each tissue was quantified with Image J software. Statistical analysis was performed with Student's t-test. […] The circulation time for the free peptides was 2 hrs, 15 min for the peptide-displaying phage, and 3 hrs for the peptide-coupled micelles. […] Representative fields from multiple sections of each of three tumors are shown.
(§2) Synthetic peptides labeled with fluorescein (Karmali et al. (2008)) (approximately 200 μg) were intravenously injected into tumor-bearing mice and allowed to circulate for 15 min to 2 hrs. Tissues were collected and observed under UV light (Illumatool Bright Light System LT-9900) or processed for immunofluorescence (Karmali et al. (2008)). To assess phage homing (Zhang et al., (2006)), 10^9 pfu of T7 phage were intravenously injected into tumor-bearing mice, and allowed to circulate for 15 min. The mice were perfused through the heart with PBS containing 1% BSA and tissues were harvested for immunofluorescence.

mitochondrial membranes = details: concentration of 10 μM; cited from earlier work
MDA-MB-435 cells = experiment: FACS analysis of FITC-peptide binding to siRNA-transfected MDA-MB-435 cells; format: cell-based, human; details: 10 μM FITC peptide, 1 h at 4° C.
Protocol: MDA-MB-435 cells were transiently transfected with gC1qR/p32-specific or control siRNAs. […] The amount of fluorescence in living cells was analyzed by FACS. Cells incubated in the absence of peptide served as FITC negative control. Compared to control siRNA transfected cells, down-regulation of gC1qR/p32 expression (in the presence of gC1qR/p32 siRNA) caused a shift in the peak of Lyp-1 fluorescence but not control peptide fluorescence.
Cultured cells were detached with cell enzyme-free dissociation buffer (Gibco/Invitrogen) and collected in PBS containing 1% BSA (PBSB). Single cells suspensions from tumors were obtained as indicated above. For FACS staining, 2.5×10^5 cells were resuspended in 100 μl of PBSB and incubated with polyclonal anti-full-length gC1qR/p32 or rabbit IgG (20 μg/ml) in PBSB for 30 min at 4° C. The cells were washed in PBSB and stained with goat anti rabbit Alexa 488 (2.5 μg/ml) for 30 min at 4° C. For FACS analysis of bound FITC-peptides, cultured cells were detached as above and incubated with 10 μM of FITC-peptides in 10% FCS/DMEM for 1 hour at 4° C. After washes with PBSB, the cells were resuspended in PBS containing 2 μg/ml of propidium iodide (PI, Molecular Probes/Invitrogen) to distinguish between live and dead cells, and 10,000 cells per sample were analyzed using a BD Biosciences FACSort.

tumors [2] = experiment: In vivo peptide and phage homing (iRGD); details: peptides 2 hrs, phage 15 min circulation
Protocol: as §1, §2

PPC1 cells = experiment: Phage internalization assay in PPC1 cells; format: cell-based, human
From the text: Mice were maintained in accordance with institutional guidelines and the animal experiments were approved by the Animal Research Committees at University of California, Santa Barbara and San Francisco. transgenic tumor mice (Bardeesy and DePinho, (2002); Arbeit et al., Progressive squamous epithelial neoplasia in K14-human papillomavirus type 16 transgenic mice. J. Virol. 68, 4358-4368 (1994); Hanahan, Heritable formation of pancreatic β-cell tumors in transgenic mice expressing recombinant insulin/simian virus 40 oncogenes. Nature 315, 115-122 (1985)) and xenograft tumors generated by injecting BALB/c nude mice (Harlan Sprague Dawley, Indianapolis, Ind.) with 10^6 human cancer cells orthotopically, intracardiacly or into the brain and tibia were used. […] Phage homing studies in vivo and cell binding studies in vitro (Zhang et al., (2006)), immunofluorescence (Karmali et al. (2008)) and flow cytometry (Sugahara et al., Hyaluronan oligosaccharides induce CD44 cleavage and promote cell migration in CD44-expressing tumor cells. J. Biol. Chem. 278, 32259-32265 (2003)) were done as described. Whole body imaging was performed 3 hrs after injecting the Cy7-labelled micelles with the Odyssey Infrared Imaging System (LI-COR Biosciences, Lincoln, Nebr.). […] FAM-labeled peptides in tissues were quantified by measuring the fluorescence with Image J software. […]

tumor homing over a control peptide (tumors [1]): 12 fold
Compound: N=C(N)NCCC[C@@H]1NC(=O)[C@@H](N)CSSC[C@@H](C(=O)O)NC(=O)[C@H](CC(=O)O)NC(=O)[C@@H]2CCCN2C(=O)CNC(=O)[C@H](CCCCN)NC(=O)[C@H](CC(=O)O)NC(=O)CNC1=O [iRGD]

Compound: D(KLAKLAK)2
mitochondrial swelling (mitochondrial membranes): marked mitochondrial swelling

Compound: FITC-LyP-1: FITC conjugated LyP-1 peptide ({FITC}-CGNKRTRGC; disulfide 1-9 (inferred); not fully specified (C-terminus))
FITC-peptide binding to cells after gC1qR/p32 siRNA versus control siRNA (MDA-MB-435 cells): reduction in the binding

Compound: RGD-4C: RGD peptide (SEQ ID NO:41) with strong affinity for αv integrins (RGDCCCC; homing peptide)
distribution within tumor (confocal microscopy) (tumors [2]): accumulated only in and around tumor blood vessels
phage internalization within PPC1 cells (PPC1 cells): nor did they internalize
